Patent US7569724B2, “Carbamic acid compounds comprising an amide linkage as HDAC inhibitors” (Topotarget UK Limited, priority 2000, dated 2009)
Where two headings read alike, the source gives them in different places.

What was measured:
[1] = system: K11 HPV E7 transformed human keratinocyte line; assay: Secondary assay: cell proliferation WST-1, K11; type: cell-based; settings: for IC50: Homo sapiens, Keratinocyte, read-out: Cell Proliferation Inhibition WST-1 (IC50 unless otherwise specified) K11
Procedure: (§1) Compounds with HDAC inhibition activity, as determined using the primary assay, were subsequently evaluated using secondary cell-based assays. The following cell lines were used:
K11—HPV E7 transformed human keratinocyte line provided by Pidder Jansen-Duerr, Institut für Biomedizinische Alternsforschung, Innsbruck, Austria.
(§2) Cells were plated in 96-well plates at 3-10×10^3 cells/well in 100 μL of culture medium. The following day, different concentrations of candidate compounds were added and the cells incubated at 37° C. for 48 h. Subsequently, 10 μL/well of WST-1 reagent was added and the cells reincubated for 1 hour. After the incubation time, absorbance was measured.
(§3) WST-1 is a tetrazolium salt which is cleaved to formazan dye by cellular enzymes. An expansion in the number of viable cells results in an increase in the overall activity of mitochondrial dehydrogenases in the sample. This augmentation in the enzyme activity leads to an increase in the amount of formazan dye formed, which directly correlates to the number of metabolically active cells in the culture. The formazan dye produced is quantified by a scanning multiwell spectrophotometer by measuring the absorbance of the dye solution at 450 nm wavelength (reference wavelength 690 nm).
(§4) Percent activity (% activity) in reducing the number of viable cells was calculated for each test compound as: % activity={(S^C−B)/(S^o−B)}×100 wherein S^C denotes signal measured in the presence of the compound being tested, S^o denotes signal measured in the absence of the compound being tested, and B denotes the background signal measured in blank wells containing medium only.
(§5) IC50 values were calculated using the software package Prism 3.0 (GraphPad software Inc., San Diego, Calif.), setting top value at 100 and bottom value at 0.

HeLa cells = assay: Secondary assay: cell proliferation WST-1, HeLa; type: cell-based; settings: Homo sapiens, 48 h, read-out: Cell Proliferation Inhibition WST-1 (IC50 unless otherwise specified) HeLa
In short: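 Absorbance at 450 nm (reference 690 nm); % activity vs untreated after blank subtraction, IC50 fitted with top 100 and bottom 0.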

JURKAT human T-cell line = assay: Secondary assay: cell proliferation WST-1, Jurkat; type: cell-based; settings: 48 h; for IC50: Homo sapiens, read-out: Cell Proliferation Inhibition WST-1 (IC50 unless otherwise specified) Jurkat
Procedure: as §1
JURKAT—Human T-cell line (ATCC no. TIB-152).
as §2, §3, §4, §5

HDAC (HeLa cell extract) = assay: Primary assay: deacetylase activity, HeLa cell extract as source of HDAC; type: biochemical, human; settings: HeLa cell extract
In short: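 Crude HeLa extract (freeze-thaw in 60 mM TrisCl pH 8.0, 450 mM NaCl, 30% glycerol) was incubated 1 h at 37° C with a [³H]acetyl-labelled histone H4 N-terminal peptide in 20 mM Tris pH 7.4, 10% glycerol.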

[2] = read-out: HDAC Inhibition (IC50 unless otherwise specified) HeLa

SMILES	IC50 ([1]; 48 h)	melting point	IC50 (HeLa cells)	IC50 (JURKAT human T-cell line)	IC50 (HDAC (HeLa cell extract); [2])	HDAC Inhibition HeLa, percent (HDAC (HeLa cell extract); @ 500 nM)	IC50 (HDAC (HeLa cell extract); comparative tables, read-out: HeLa IC50)	HDAC Inhibition HeLa, percent (HDAC (HeLa cell extract); @ 100 nM)	IC50 ([1]; K11, 48 h)	Cell Proliferation Inhibition WST-1 (IC50 unless otherwise specified) K11 ([1]; K11, 48 h)	Cell Proliferation Inhibition WST-1 (IC50 unless otherwise specified) Jurkat (JURKAT human T-cell line)
O=C(CCCCCCNC(=O)c1ccc2ccccc2c1)NO [PX106493, Naphthalene-2-carboxylic acid (6-hydroxycarbamoyl-hexyl)-amide]	2.1 µM	136 to 137 °C	0.36 µM	0.2 µM							
O=C(CCCCCCCNC(=O)c1ccc2ccccc2c1)NO [PX106515, Naphthalene-2-carboxylic acid (7-hydroxycarbamoyl-heptyl)-amide]	1.8 µM	138 to 139 °C	3.6 µM	2.7 µM	0.0277 µM						
O=C(CCCCCCC(=O)NCC(O)c1ccccc1)NO (centres unmarked) [PX116226, Octanedioic acid hydroxyamide (2-hydroxy-2-phenyl-ethyl)-amide]	5.1 µM	100 to 102 °C	4.1 µM	3.2 µM	0.562 µM						
CN(CCCCCC(=O)NO)C(=O)/C=C/C=C/c1ccccc1 [PX116234]	3.6 µM	145 to 147 °C	3.4 µM	2.7 µM	0.015 µM						
O=C(/C=C/c1cccn1-c1ccc(Cl)cc1)NCCCCCC(=O)NO [PX116235, E-3-[1-(4-Chlorophenyl)-1H-pyrrol-2-yl]-N-(5-hydroxycarbamoylpentyl)acrylamide]	2.6 µM		1 µM	0.7 µM	0.01 µM						
O=C(CCCCCCC(=O)NC/C=C/c1ccccc1)NO [PX117416, Octanedioic acid hydroxyamide (3-phenyl-allyl)-amide]	8.5 µM	133 to 133.5 °C	7.4 µM	3.6 µM		75% @ 500 nM					
O=C(CCCCCCC(=O)NCCc1ccccc1)NO [PX117419, Octanedioic acid hydroxyamide phenethyl-amide]	> 30 µM		13 µM	3.5 µM		46% @ 500 nM					
O=C(CCCCCCC(=O)NCCCc1ccccc1)NO [PX117420, Octanedioic acid hydroxyamide (3-phenyl-propyl)-amide]	23.5 µM	97 to 98 °C	15 µM	5.3 µM		73% @ 500 nM					
O=C(/C=C/c1cccc(Oc2ccccc2)c1)NCCCCCC(=O)NO [PX117430, E-N-(5-Hydroxycarbamoylpentyl)-3-(3-phenoxyphenyl)acrylamide]	4.4 µM		27 µM	4.6 µM	0.085 µM						
O=C(C=C(c1ccccc1)c1ccccc1)NCCCCCC(=O)NO [PX117436, E-N-(5-Hydroxycarbamoylpentyl)-3,3-diphenylacrylamide]	> 30 µM		8.5 µM	3.5 µM		64% @ 500 nM					
O=C(/C=C/C=C(c1ccccc1)c1ccccc1)NCCCCCC(=O)NO [PX117437, 2E-5,5-Diphenylpenta-2,4-dienoic acid (5-hydroxycarbamoylpentyl)amide]	3.4 µM		3.7 µM	1.4 µM		95% @ 500 nM					
O=C(/C=C/c1cccc2ccccc12)NCCCCCC(=O)NO [PX117441, N-(5-Hydroxycarbamoyl-pentyl)-3-naphthalen-1-yl-acrylamide]	4.9 µM	135 to 137 °C	17 µM	4.3 µM	0.048 µM		0.048 µM				
O=C(CCCCCNC(=O)CC=C(c1ccccc1)c1ccccc1)NO [PX117454, E-4,4-Diphenylbut-3-enoic acid (5-hydroxycarbamoylpentyl)amide]	13 µM		15 µM	3.4 µM	0.263 µM						
O=C(/C=C/c1cccc(NC(=O)/C=C/C=C/c2ccccc2)c1)NO [PX117706, N-{3-[(E)-3-(Hydroxyamino)-3-oxo-1-propenyl]phenyl}-5-phenyl-(2E,4E)-pentadienamide]	6.9 µM		30 µM	1.8 µM	0.32 µM						
CC(/C=C/C(=O)Nc1cccc(/C=C/C(=O)NO)c1)=C\c1ccccc1 [PX117707, N-{3-[(E)-3-(Hydroxyamino)-3-oxo-1-propenyl]phenyl}-4-methyl-5-phenyl-(2E,4E)-pentadienamide]	7.7 µM	145 to 148 °C	43 µM	1.5 µM	0.235 µM						
O=C(/C=C/c1cccc(NC(=O)/C=C/c2ccc3c(c2)OCO3)c1)NO [PX117711, (E)-3-(1,3-Benzodioxol-5-yl)-N-{3-[(E)-3-(hydroxyamino)-3-oxo-1-propenyl]phenyl}-2-propenamide]	7.9 µM	128 °C	9.8 µM	0.92 µM	0.44 µM						
O=C(/C=C/c1ccc(C(F)(F)F)cc1)NCCCCCC(=O)NO [PX117717, N-(5-Hydroxycarbamoyl-pentyl)-3-(4-trifluoromethyl-phenyl)-acrylamide]	2.34 µM	132 to 134 °C	5.9 µM	0.41 µM	0.022 µM						
O=C(/C=C/c1cccc(OC(F)(F)F)c1)NCCCCCC(=O)NO [PX117718, N-(5-Hydroxycarbamoyl-pentyl)-3-(3-trifluoromethoxy-phenyl)-acrylamide]	3.7 µM	109 to 111 °C	39 µM	4.4 µM	0.067 µM						
O=C(/C=C/c1ccc(Cl)cc1F)NCCCCCC(=O)NO [PX117719, 3-(4-Chloro-2-fluoro-phenyl)-N-(5-hydroxycarbamoyl-pentyl)-acrylamide]	0.94 µM		6.8 µM	0.56 µM							
O=C(CCCCCCC(=O)Nc1ccc(-c2ccccc2)cc1)NO [PX117720, Octanedioic acid biphenyl-4-ylamide hydroxamide]	2.5 µM	227 to 229 °C	1.8 µM	0.26 µM	0.04 µM						
CC(C)(C(=O)NCCCCCC(=O)NO)c1ccc(Cl)cc1 [PX117722, 6-[2-(4-Chlorophenyl)-2-methyl-propionylamino]-hexanoic acid hydroxyamide]	> 30 µM			8.8 µM	> 0.1 µM						
O=C(CCCCCNC(=O)c1sccc1OCc1ccccc1)NO [PX117723]	10 µM			1.2 µM		46% @ 500 nM					
O=C(CCCCCNC(=O)c1ccc(Oc2ccccc2)cc1)NO [PX117726]	4.1 µM			9.9 µM		35% @ 500 nM					
O=C(CCCCCNC(=O)Cc1ccccc1OCc1ccccc1)NO [PX117728]	28 µM			4.1 µM	> 0.1 µM						
Cc1ccc(C(CC(=O)NCCCCCC(=O)NO)NC(=O)OCc2ccccc2)cc1 (centres unmarked) [PX117729, [2-(5-Hydroxycarbamoyl-pentylcarbamoyl)-1-p-tolyl-ethyl]-carbamic acid benzyl ester]	23 µM	146 to 148 °C	33 µM	2.8 µM				13% @ 100 nM			
C/C(C(=O)NCCCCCC(=O)NO)=C(/C)c1ccccc1 [PX117737, E-2-Methyl-3-phenylbut-2-enoic acid (5-hydroxycarbamoylpentyl)amide]	> 30 µM		32 µM	2.2 µM	1.2 µM						
O=C(CCCCCNC(=O)[C@H](Cc1c[nH]c2ccccc12)NC(=O)c1ccc2ccccc2c1)NO [PX117783, (S)-Naphthalene-2-carboxylic acid [1-(5-hydroxycarbamoyl-pentylcarbamoyl)-2-(1H-indol-3-yl)-ethyl]-amide]			6 µM	1.6 µM	0.1 µM				9.7 µM		
O=C(CCCCCNC(=O)[C@H](Cc1c[nH]c2ccccc12)NC(=O)CCCNC(=O)OCc1ccccc1)NO [PX117785, (S)-Carbamic acid, [4-[[2-[[6-(hydroxyamino)-6-oxohexyl]amino]-1-(1H-indol-3-ylmethyl)-2-oxoethyl]amino]-4-oxobutyl]-, phenylmethyl ester]					0.192 µM					Inactive	Inactive
